Assay results reported in article PMC5561075, “Identification and Characterization of a Bacterial Homolog of Chloride Intracellular Channel (CLIC) Protein” (Scientific Reports, 2017).

Target: Ec SspA (Escherichia coli, UniProt P0ACA3)
Assay: single-channel recording in planar lipid bilayers
Format: biochemical
Settings: channel blocker, POPE:POPS:cholesterol 4:1:1, 500 mM KCl cis vs 50 mM KCl trans, 10 mM Tris-HCl pH 7.4, 1 mM DTT, room temperature

Sequence of Ec SspA (P0ACA3 whole entry): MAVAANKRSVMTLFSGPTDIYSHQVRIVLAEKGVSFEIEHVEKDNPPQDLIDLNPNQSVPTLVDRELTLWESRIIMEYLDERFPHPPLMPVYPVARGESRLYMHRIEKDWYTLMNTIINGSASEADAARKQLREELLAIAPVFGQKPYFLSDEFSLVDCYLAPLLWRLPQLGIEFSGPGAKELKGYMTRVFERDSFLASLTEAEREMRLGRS

open probability at 100 μM: 0.1 ± 0.05
SMILES: CC1(C2CCCC2)Cc2cc(OCC(=O)O)c(Cl)c(Cl)c2C1=O (stereo not shown) [IAA-94]
